Measurements published in patent publication US20230139171A1 (SITA Information Networking Computing UK Limited, priority 2019, published 2023).

Tests used:
Assay type in all cases: cell-based
human TLR8 = target: T1, human TLR8 (Homo sapiens, UniProt Q9NR97); experiment: TLR8 inhibition reporter assay (HEK-Blue cells, SEAP reporter, R848 stimulation); settings: HEK-Blue cells overexpressing human TLR8, SEAP reporter, R848 15.9 μM; read-out: TLR8 IC50
T1 construct: host or cells: HEK-Blue cells
T1 sequence (Q9NR97 27-1041): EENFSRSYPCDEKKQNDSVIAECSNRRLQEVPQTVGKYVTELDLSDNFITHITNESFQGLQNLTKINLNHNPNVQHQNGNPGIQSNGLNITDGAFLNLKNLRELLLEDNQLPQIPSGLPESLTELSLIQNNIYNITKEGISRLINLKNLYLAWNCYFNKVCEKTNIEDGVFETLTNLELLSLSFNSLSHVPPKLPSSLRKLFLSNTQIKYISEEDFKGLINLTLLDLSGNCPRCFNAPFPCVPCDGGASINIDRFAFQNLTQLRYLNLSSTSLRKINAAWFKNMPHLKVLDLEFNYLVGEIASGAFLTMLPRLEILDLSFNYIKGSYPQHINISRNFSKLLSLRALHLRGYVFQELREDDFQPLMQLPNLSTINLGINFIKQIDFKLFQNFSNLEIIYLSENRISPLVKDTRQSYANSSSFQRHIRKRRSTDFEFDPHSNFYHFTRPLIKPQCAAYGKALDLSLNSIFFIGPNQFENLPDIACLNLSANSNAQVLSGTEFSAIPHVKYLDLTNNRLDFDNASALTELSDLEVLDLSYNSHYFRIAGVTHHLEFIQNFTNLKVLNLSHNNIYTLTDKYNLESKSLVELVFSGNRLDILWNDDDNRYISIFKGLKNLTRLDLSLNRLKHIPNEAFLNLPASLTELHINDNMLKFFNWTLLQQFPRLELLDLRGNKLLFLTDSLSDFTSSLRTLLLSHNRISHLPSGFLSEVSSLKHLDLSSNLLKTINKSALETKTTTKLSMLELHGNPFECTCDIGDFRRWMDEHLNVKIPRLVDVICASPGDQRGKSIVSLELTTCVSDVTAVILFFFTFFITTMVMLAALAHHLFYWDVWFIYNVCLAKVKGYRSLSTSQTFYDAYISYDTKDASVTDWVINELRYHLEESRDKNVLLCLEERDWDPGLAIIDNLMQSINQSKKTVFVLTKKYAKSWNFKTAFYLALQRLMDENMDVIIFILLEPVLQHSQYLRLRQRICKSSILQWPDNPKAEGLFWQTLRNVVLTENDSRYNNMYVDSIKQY
Outline: (§1)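 Dose–response from 0.05 nM to 50 μM was run in HEK-Blue human TLR7, TLR8 and TLR9 reporter cells. After 30 min at room temperature with compound, ligand was added (TLR7 gardiquimod 7.5 μM; TLR8 R848 15.9 μM; TLR9 ODN2006 5 nM) and SEAP measured next day, at 22 h.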

human TLR7 = target: T2, human TLR7 (Homo sapiens, UniProt Q9NYK1); experiment: TLR7 inhibition reporter assay (HEK-Blue cells, SEAP reporter, gardiquimod stimulation); settings: HEK-Blue cells overexpressing human TLR7, SEAP reporter, gardiquimod 7.5 μM; read-out: TLR7 IC50
T2 construct: host or cells: HEK-Blue cells
T2 sequence (Q9NYK1 27-1049): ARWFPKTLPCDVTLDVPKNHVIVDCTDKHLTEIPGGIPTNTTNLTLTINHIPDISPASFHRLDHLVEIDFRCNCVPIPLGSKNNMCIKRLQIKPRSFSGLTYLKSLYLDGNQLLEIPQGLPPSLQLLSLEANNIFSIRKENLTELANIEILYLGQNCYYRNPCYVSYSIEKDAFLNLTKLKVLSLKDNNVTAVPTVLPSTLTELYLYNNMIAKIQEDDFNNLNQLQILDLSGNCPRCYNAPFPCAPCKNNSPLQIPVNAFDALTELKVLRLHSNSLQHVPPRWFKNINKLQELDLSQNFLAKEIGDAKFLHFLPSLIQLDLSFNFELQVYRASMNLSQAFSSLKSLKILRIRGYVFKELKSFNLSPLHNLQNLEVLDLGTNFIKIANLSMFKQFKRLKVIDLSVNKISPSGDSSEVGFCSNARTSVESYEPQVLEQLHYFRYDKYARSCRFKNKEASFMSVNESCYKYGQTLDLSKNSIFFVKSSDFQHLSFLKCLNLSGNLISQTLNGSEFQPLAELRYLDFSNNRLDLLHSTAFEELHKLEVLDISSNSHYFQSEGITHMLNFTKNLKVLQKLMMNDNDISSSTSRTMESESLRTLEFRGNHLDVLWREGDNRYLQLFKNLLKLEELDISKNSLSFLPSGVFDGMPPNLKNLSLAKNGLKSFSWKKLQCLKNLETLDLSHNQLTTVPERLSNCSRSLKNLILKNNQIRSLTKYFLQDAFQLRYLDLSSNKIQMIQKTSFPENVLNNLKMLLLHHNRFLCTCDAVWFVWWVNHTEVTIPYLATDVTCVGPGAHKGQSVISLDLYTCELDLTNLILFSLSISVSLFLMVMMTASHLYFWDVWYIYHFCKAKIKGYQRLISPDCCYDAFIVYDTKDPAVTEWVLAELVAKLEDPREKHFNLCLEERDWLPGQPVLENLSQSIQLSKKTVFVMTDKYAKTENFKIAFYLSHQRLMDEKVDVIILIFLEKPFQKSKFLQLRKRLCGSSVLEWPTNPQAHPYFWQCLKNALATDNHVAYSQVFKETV
Outline: as §1

human TLR9 = target: T3, human TLR9 (Homo sapiens, UniProt Q9NR96); experiment: TLR9 inhibition reporter assay (HEK-Blue cells, SEAP reporter, ODN2006 stimulation); settings: HEK-Blue cells overexpressing human TLR9, SEAP reporter, ODN2006 5 nM
T3 construct: host or cells: HEK-Blue cells
T3 sequence (Q9NR96 26-1032): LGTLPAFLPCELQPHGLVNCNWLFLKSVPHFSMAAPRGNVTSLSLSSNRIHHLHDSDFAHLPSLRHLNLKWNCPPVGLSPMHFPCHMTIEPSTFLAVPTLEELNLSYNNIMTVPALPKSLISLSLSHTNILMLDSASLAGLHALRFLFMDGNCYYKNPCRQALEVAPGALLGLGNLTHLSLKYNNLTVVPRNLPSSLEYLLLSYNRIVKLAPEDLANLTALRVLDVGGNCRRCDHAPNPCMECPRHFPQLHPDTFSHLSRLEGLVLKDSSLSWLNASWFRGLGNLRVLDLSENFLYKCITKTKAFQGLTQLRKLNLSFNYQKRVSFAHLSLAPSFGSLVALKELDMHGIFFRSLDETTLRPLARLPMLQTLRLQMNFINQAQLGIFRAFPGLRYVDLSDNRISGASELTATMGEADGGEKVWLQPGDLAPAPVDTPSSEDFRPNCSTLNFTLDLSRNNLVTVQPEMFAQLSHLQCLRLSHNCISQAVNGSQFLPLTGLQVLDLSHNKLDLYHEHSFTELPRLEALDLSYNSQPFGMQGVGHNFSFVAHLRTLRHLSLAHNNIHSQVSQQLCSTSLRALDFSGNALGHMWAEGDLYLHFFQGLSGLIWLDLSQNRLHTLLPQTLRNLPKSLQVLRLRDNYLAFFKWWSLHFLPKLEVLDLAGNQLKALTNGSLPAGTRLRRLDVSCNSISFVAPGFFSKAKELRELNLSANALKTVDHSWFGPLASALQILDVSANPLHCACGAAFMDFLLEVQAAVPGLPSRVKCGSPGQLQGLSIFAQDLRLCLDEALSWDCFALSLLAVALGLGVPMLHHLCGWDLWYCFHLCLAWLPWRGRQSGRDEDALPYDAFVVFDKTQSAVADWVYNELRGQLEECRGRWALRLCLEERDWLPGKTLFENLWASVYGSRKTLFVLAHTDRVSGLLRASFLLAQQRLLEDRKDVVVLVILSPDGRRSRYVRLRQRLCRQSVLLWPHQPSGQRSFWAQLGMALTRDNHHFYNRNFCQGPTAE
Outline: as §1

Row | IC50 (human TLR8) [nM] | IC50 (human TLR7) [nM] | IC50 (human TLR9) [nM] | SMILES
1 | 33.9 | 5.52 | 287 | Cc1cc(-c2[nH]c3sc(C4CCNCC4)nc3c2C(C)C)cc(C)n1 [Example 4, 5-(2,6-dimethylpyridin-4-yl)-6-isopropyl-2-(piperidin-4-yl)-4H-pyrrolo[3,2-d]thiazole]
2 | 22.7 | 26.8 | 29200 | Cc1c(-c2[nH]c3sc(C4CCC(NC(C)C)CC4)nc3c2C(C)C)cn(C)c(=O)c1C (single isomer, unassigned) [Example 254, 5-(6-isopropyl-2-(4-(isopropylamino)cyclohexyl)-4H-pyrrolo[3,2-d]thiazol-5-yl)-1,3,4-trimethylpyridin-2(1H)-one]
3 | 19.6 | 5.34 | 9280 | Cc1cc(-c2[nH]c3sc(C4CCC(NCC5(CO)CC5)CC4)nc3c2C(C)C)cn2ncnc12 (single isomer, unassigned) [Example 143, (1-(((4-(6-isopropyl-5-(8-methyl-[1,2,4]triazolo[1,5-a]pyridin-6-yl)-4H-pyrrolo[3,2-d]thiazol-2-yl)cyclohexyl)amino)methyl)cyclopropyl)methanol]
4 | 0.43 | 1.56 | 7410 | CCN(C)C1CCN(c2nc3c(C(C)C)c(-c4cn5ncnc5c(C)c4C)[nH]c3s2)CC1 [Example 298, 1-(5-(7,8-dimethyl-[1,2,4]triazolo[1,5-a]pyridin-6-yl)-6-isopropyl-4H-pyrrolo[3,2-d]thiazol-2-yl)-N-ethyl-N-methylpiperidin-4-amine]

The next lines start with the compound.

Row | SMILES | IC50 (human TLR8) [nM] | IC50 (human TLR7) [nM] | IC50 (human TLR9) [nM]
5 | Cc1c(-c2[nH]c3sc(N4CCC(NCC5(C)COC5)CC4)nc3c2C(C)C)cn2ncnc2c1C [Example 295, 1-(5-(7,8-dimethyl-[1,2,4]triazolo[1,5-a]pyridin-6-yl)-6-isopropyl-4H-pyrrolo[3,2-d]thiazol-2-yl)-N-((3-methyloxetan-3-yl)methyl) piperidin-4-amine] | 0.28 | 4.94 | 9710
6 | COc1cc(-c2[nH]c3sc(C4CCC(N5CCC6(CC5)COC6)CC4)nc3c2C(C)C)cn2ncnc12 (single isomer, unassigned) [Example 113, 7-(4-(6-isopropyl-5-(8-methoxy-[1,2,4]triazolo[1,5-a]pyridin-6-yl)-4H-pyrrolo[3,2-d]thiazol-2-yl)cyclohexyl)-2-oxa-7-azaspiro[3.5]nonane] | 27.1 | 1.09 | 7800
7 | CC(C)c1c(-c2ccc(C#N)c3ncccc23)[nH]c2sc(C3CCN(C4COC4)CC3)nc12 [Example 37, 5-(6-isopropyl-2-(1-(oxetan-3-yl)piperidin-4-yl)-4H-pyrrolo[3,2-d]thiazol-5-yl)quinoline-8-carbonitrile] | 27 | 12.1 | 27900
8 | CCN(C)C1CCC(c2nc3c(C(C)C)c(-c4cn5ncnc5c(C)c4C)[nH]c3s2)CC1 (single isomer, unassigned) [Example 190, 4-(5-(7,8-dimethyl-[1,2,4]triazolo[1,5-a]pyridin-6-yl)-6-isopropyl-4H-pyrrolo[3,2-d]thiazol-2-yl)-N-ethyl-N-methylcyclohexan-1-amine] | 0.58 | 0.8 | 8350
9 | COc1cc(-c2[nH]c3sc(C4CCC(N5CC(OC)C5)CC4)nc3c2C(C)C)cn2ncnc12 (single isomer, unassigned) [Example 122, 6-isopropyl-5-(8-methoxy-[1,2,4]triazolo[1,5-a]pyridin-6-yl)-2-(4-(3-methoxyazetidin-1-yl)cyclohexyl)-4H-pyrrolo[3,2-d]thiazole] | 3.34 | 1.95 | 9250
10 | COc1cc(-c2[nH]c3sc(C4CCC(NC5(C)CCC5)CC4)nc3c2C(C)C)cn2ncnc12 (single isomer, unassigned) [Example 108, 4-(6-isopropyl-5-(8-methoxy-[1,2,4]triazolo[1,5-a]pyridin-6-yl)-4H-pyrrolo[3,2-d]thiazol-2-yl)-N-(1-methylcyclobutyl) cyclohexan-1-amine] | 4.49 | 1.34 | 5700
11 | Cc1c(-c2[nH]c3sc(C4CCC(N5CC6(CCOCC6)C5)CC4)nc3c2C(C)C)cn2ncnc2c1C (single isomer, unassigned) [Example 239, 2-(4-(5-(7,8-dimethyl-[1,2,4]triazolo[1,5-a]pyridin-6-yl)-6-isopropyl-4H-pyrrolo[3,2-d]thiazol-2-yl)cyclohexyl)-7-oxa-2-azaspiro[3.5]nonane] | 0.27 | 1.96 | 9920
12 | CCC1(NC2CCC(c3nc4c(C(C)C)c(-c5cc(OC)c6ncnn6c5)[nH]c4s3)CC2)COC1 (single isomer, unassigned) [Example 95, 3-ethyl-N-(4-(6-isopropyl-5-(8-methoxy-[1,2,4]triazolo[1,5-a]pyridin-6-yl)-4H-pyrrolo[3,2-d]thiazol-2-yl)cyclohexyl)oxetan-3-amine] | 23.8 | 11.7 | 43200
